Assay results from ChEMBL document CHEMBL1156510, “Epidermal growth factor receptor and notch pathways participate in the tumor suppressor function of gamma-secretase” (2007).
The source made the active and inactive calls. No cut-off for these calls is given here.

Columns and labels:
[1] = tested on: Mus musculus; experiment: Reduction of amyloid beta in Tg2576 mouse plasma at 2.5 mg/kg/day; assay type: functional; set-up: scale not given: the % may be the effect or the level left
[2] = tested on: Mus musculus; experiment: Reduction of amyloid beta in Tg2576 mouse brain at 2.5 mg/kg/day; assay type: functional; set-up: scale not given: the % may be the effect or the level left
[3] = tested on: Mus musculus; experiment: Induction of hyperproliferative skin lesions assessed as epidermal hyperplasia in Nct+/- C57BL/6;129Svi mouse at 2.5 mg/kg/day; assay type: functional, organism-based
[4] = tested on: Fibroblast; experiment: Inhibition of Nct-/- C57BL/6;129Svi mouse fibroblast cell proliferation; assay type: functional, cell-based
[5] = tested on: Fibroblast; experiment: Inhibition of EGF induced Nct-/- C57BL/6;129Svi mouse fibroblast cell proliferation at 5 uM; assay type: functional, cell-based
[6] = tested on: Fibroblast; experiment: Inhibition of EGF induced Nct+/+ C57BL/6129Svi mouse fibroblast cell proliferation at 5 uM; assay type: functional, cell-based; details: C57BL/6

| Structure (SMILES) | Activity [1] | Activity [2] | Activity [3] | Activity [4] | Activity [5] | Activity [6] |
| --- | --- | --- | --- | --- | --- | --- |
| C[C@H](NC(=O)[C@@H](O)c1cc(F)cc(F)c1)C(=O)N[C@@H]1C(=O)N(C)c2ccccc2-c2ccccc21 | >90% | >70% | Active |  |  |  |
| COc1cc2ncnc(Nc3cccc(Cl)c3)c2cc1OC |  |  |  | Active | Active | inactive |
